Laboratory results taken from PubChem BioAssay (NCI).
“And” between values parts separate entries of the source, which are not always exact repeats. Equal values may be shown once.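 All cell lines were grown in 96-well plates and treated with compound for 48 hours. GI50 marks 50% less growth. TGI is the concentration that stops growth completely.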

Tests used:
Test in all cases: NCI anticancer screen, dose series, 48 h
[1] = system: SK-MEL-2 melanoma
[2] = system: ACHN renal
[3] = system: NCI-H460 lung
[4] = system: SK-OV-3 ovarian
[5] = system: RXF 393 renal
[6] = system: LOX IMVI melanoma
[7] = system: TK-10 renal
[8] = system: OVCAR-4 ovarian
[9] = system: HOP-92 NSCLC
[10] = system: NCI-H23 lung

SMILES	GI50 [1] [µM]	TGI [1]	GI50 [2] [µM]	TGI [2]	GI50 [3] [µM]	TGI [3]	GI50 [4] [µM]	TGI [4]	GI50 [5] [µM]	TGI [5]	GI50 [6] [µM]	TGI [6]	GI50 [7] [µM]	TGI [7]	GI50 [8] [µM]	TGI [8]	GI50 [9] [µM]	TGI [9]	GI50 [10] [µM]	TGI [10]
O=C(c1cccs1)c1c(C(F)(F)F)n([O-])c2ccc(C(F)(F)F)cc2[n+]1=O	0.785	1.85 µM	0.183	0.326 µM	0.205	0.407 µM	1.24	2.56 µM	0.195	0.387 µM	0.0571	0.127 µM	0.596	1.31 µM	0.224	0.531 µM	0.152	0.321 µM	0.353	1 µM
C1=CN2C[n+]3cccc(OCc4ccccc4)c3N=C2C(OCc2ccccc2)=C1		33.3 µM		> 100 µM		> 100 µM		> 100 µM		> 100 µM		86 µM		> 100 µM		82.9 µM		81.4 µM		39.9 µM
O=[N+]([O-])c1ccc(N/N=C\c2cc(Cl)ccc2O)nc1	3.24	29.4 µM	0.696	39.4 µM	1.66	13.6 µM	4.25	37.3 µM	5.66	38.8 µM	0.457	8.47 µM	2	23.6 µM	1.72	13.7 µM	6.68	> 100 µM	0.541	9 µM
Cn1cc(-c2ccc(=O)n(Cc3cccc(-c4ncc(OCCN5CCOCC5)cn4)c3)n2)cn1	> 88.3	> 100 µM	> 83.6	> 100 µM	> 100	> 100 µM	> 100	> 100 µM	> 75.4	> 100 µM	> 100	> 100 µM	99	> 100 µM	33.5	> 100 µM	34.9	> 100 µM	32.9	> 100 µM
COC(=O)c1cnc(=O)n(C2CC(O)C(CO)O2)c1 (stereo not drawn)	> 100	> 100 µM	> 100	> 100 µM	> 100	> 100 µM	> 100	> 100 µM	> 100	> 100 µM	> 100	> 100 µM	> 100	> 100 µM	> 100	> 100 µM		> 100 µM	> 100	> 100 µM
Cc1ccc(S(=O)(=O)N/N=C/C(Br)=C(/Br)C(=O)O)cc1		35.1 µM		8.75 µM		44.4 µM		34.8 µM		5.17 µM		11 µM		22.9 µM		19.7 µM		39.6 µM		15.2 µM
NC(N)=NS(=O)(=O)c1ccc(NC(=O)c2cccc3c(Nc4ccc(S(=O)(=O)N=C(N)N)cc4)c4ccc(Cl)cc4nc23)cc1		> 100 µM		> 100 µM		> 100 µM		> 100 µM		> 100 µM		> 100 µM		> 100 µM		> 100 µM		93 µM		> 100 µM
NC(N)=NC(CC(=O)O)c1ccccc1 (stereo not drawn)		> 100 µM		> 100 µM		> 100 µM		> 100 µM		> 100 µM		> 100 µM		> 100 µM		> 100 µM		> 100 µM		> 100 µM
C/C(=N\N(C)C)c1sc(-n2nc(-c3ccccc3)cc2-c2ccccc2)nc1C		> 100 µM		> 100 µM		> 100 µM		> 100 µM		> 100 µM		35.3 µM		> 100 µM		> 100 µM		> 100 µM		> 100 µM
Cn1ncc2cc3c(Nc4ccc(Cl)cc4)cccc3nc21		51.8 µM		72.5 µM		32 µM		> 100 µM		37.6 µM		41.4 µM		> 100 µM		40 µM		47.7 µM		> 100 µM
C[C@H]1[C@H](OC(=O)CCC(=O)O)O[C@@H]2O[C@]3(C)CC[C@H]4[C@H](C)CC[C@@H]1[C@@]24OO3	2.86	59.8 µM	0.921	14.4 µM	1.24	41.6 µM	16.7	> 89 µM	0.953	33 µM	0.421	4.79 µM		11.6 µM	1.28	28.1 µM	0.214	2.38 µM	0.383	10.7 µM
COc1cc(O)c(C(=O)/C=C/c2ccccc2)c(OC)c1		21.1 µM		20.8 µM		13.3 µM		25.6 µM		32.8 µM		6.36 µM		19.7 µM		26.8 µM		14.4 µM		19.4 µM
COc1ccccc1C(=O)/C=C/c1cc2cccc(OC)c2[nH]c1=O	0.656	4.7 µM	0.0557	2.15 µM	0.0243	0.524 µM	0.554	14.9 µM	0.0584	0.991 µM	0.0262	0.724 µM	1.14	11.5 µM	0.314	8.37 µM	0.115	2.07 µM	0.125	2.04 µM
CCOC(=O)CCC(NC(=O)c1ccc(N=Cc2nc3cc(C(F)(F)F)ccc3nc2-c2ccccc2)cc1)C(=O)OCC (stereo not drawn)	37.7	34.7 µM and > 100 µM	46.3	50 µM and > 100 µM	> 100	50 µM and > 100 µM	14.1	23.2 µM and 38.2 µM	3.1	17.2 µM and 20.2 µM	> 100	50 µM and > 100 µM	21.6	29.5 µM and 58.2 µM	> 100	50 µM and > 100 µM	12.5	18.3 µM and 45.8 µM	28.9	21.6 µM and > 100 µM
Cc1cc2c(C)c3cc(C)c(N)cc3nc2cc1N	1.3	3.85 µM	0.422	3.82 µM	0.332	1.34 µM	0.963	8.39 µM	1.16	4.42 µM	0.893	4.03 µM	1.31	5.39 µM	1.1	3.92 µM	1.54	5.13 µM	0.852	4.28 µM
